{"source": "patent US20160176855A1", "about": "“Novel Sterically Hindered Cyclic Amines” (CLARIANT INTERNATIONAL LTD, priority 2013, published 2016)", "assay": "Solubility in solvents", "format": "physicochemical"}
{"compound": "CC1(C)CC(NC(=O)c2ccc(C(=O)NC3CC(C)(C)NC(C)(C)C3)o2)CC(C)(C)N1", "note": "[Example 2, N,N′-bis(2,2,6,6-tetramethyl-4-piperidinyl)-2,5-furandicarboxamide]", "values": [{"measurement": "Solubility", "setting": "in DMF", "result": "soluble"}, {"measurement": "Solubility", "setting": "in ethanol", "result": "soluble"}, {"measurement": "Solubility", "setting": "in hexane", "result": "insoluble"}, {"measurement": "Solubility", "setting": "in methanol", "result": "soluble"}, {"measurement": "Solubility", "setting": "in water", "result": "insoluble"}]}
